Values of other authors in patent publication US6545056B1, “Aryl nitrone therapeutics and methods for treating inflammatory bowel disease” (Centaur Pharmaceuticals, Inc., priority 1999, dated 2003).

Tested on: senescence-accelerated mice

CC(C)(C)/[N+]([O-])=C/c1ccccc1 [PBN, α-phenyl-t-butyl nitone]
increase of the life span: one third
